In one assay the test system is plasma HIV RNA. Kind of assay: Plasma HIV RNA copy number by cDNA gene amplification (PCR) and enzyme-linked affinity assay. The format is in vivo, human (HIV antibody-positive subjects). The settings on record: individual patient. The text has this: After informed consent was obtained, whole blood samples were collected by venipuncture in the presence of acid-citrate-dextrose as an anticoagulant. A single plasma sample was collected from 39 HIV antibody-positive subjects who were not receiving antiretroviral therapy at the time of collection and from 33 HIV antibody-positive subjects who were currently on and had received AZT for a minimum of 3 mo.
(§1) Two plasma samples were collected from an additional 27 subjects before and 1 month after initiation of dideoxynucleoside therapy. 18 of these subjects received 500 mg/d of AZT orally. Seven subjects received a combination of zidovudine (150-600 mg/d) and 2′,3′-dideoxyinosine (ddI) (134-500 mg/d). Two patients received 500 mg/d of ddI alone (see Table I for individual subject characteristics). Finally, nine of these subjects had two plasma samples taken 1-3 wk. before initiating antiretroviral therapy and two plasma samples taken 1 and 2 mo. after commencing therapy. Plasma was separated within 4 h. by centrifugation at 500 g for 10 min. A second centrifugation was performed on the plasma at 500 g for 30 min. to remove any cellular material. 200 μl of plasma was then mixed with 200 μl of a solution containing 5M guanidinium thiocyanate, vortexed briefly, and stored at −70° C. until further use. All samples were assayed within 3 mo. of collection. To decrease variance, all specimens to be compared from the same subject were run in the same assay.
RNA was extracted from plasma by the method described in Chomczynski et al., 1987, Ann. Biochem. 162:156-159. Briefly, 200 μl of clarified plasma to which 200 μl of 5M guanidinium thiocyanate had previously been added was extracted with phenol/chloroform and precipitated with isopropanol. The resulting pellet was then washed in 75% ethanol, dried, and brought up in diethylpyrocarbonate treated, glass distilled water.
HIV RNA was transcribed to cDNA using Moloney murine leukemia virus reverse transcriptase (Bethesda Research Laboratories, Gaithersburg, Md.) by the method described in Kawasaki, 1990, “In PCR Protocols: A Guide to Methods and Applications” pp. 21-27, M. A. Innis, D. H. Gelfand, J. J. Sninsky, and T. J. White, eds. Academic Press, Berkeley, Calif. Oligomers used for amplification included SK38, SK39, and SK19 (Kellog et al., 1990, “In PCR Protocols: A Guide to Methods and Applications,” pp. 337-348, M. A. Innis, D. H. Gelfand, J. J. Sninsky, and T. J. White, eds. Academic Press, Berkeley, Calif.). Biotinylation of SK38 and horseradish peroxidase (HRP) labeling of probe SK19 were prepared as described in Levenson et al., 1990, “In PCR Protocols: A Guide to Methods and Applications,” pp. 99-112M. S. Innis, D. H. Gelfand, J. J. Sninsky, and T. J. White, eds. Academic Press, Berkeley, Calif. Amplification of HIV cDNA was carried out as follows: to a 100-μl reaction mixture was added the cDNA, 50 pmol of primers SK38 and SDK39, […] of each dNTP, 10 mM Tris (pH 8.3), 2.5 mM MgCl2, 50 mM KCl, and 2.5 U of recombiTaq DNA polymerase (Perkin-Elmer Cetus, Norwalk, Conn.). The mixture was then overlaid with 50 μl of mineral oil. Tubes were placed in a DNA thermal cycler (Perkin-Elmer Cetus) for 30 cycles of amplification with the following program: 95° C./30 s, 55° C./30s, and 72° C./60 s for denaturation, annealing, and extension, respectively. Negative and positive controls which included both high and low copy number HIV RNA and DNA were added at each step.
To detect and quantitate PCR product, 96-well microplates (Maxisorp; Nunc, Naperville, Ill.) were coated with 100 μl of a 0.1 mg/ml solution of avidin (Sigma Chemical Co., St. Louis, Mo.) in 50 mM Na2CO3 (pH 9.6) overnight at room temperature. Wells were then washed twice with PBS. Wells were then filled with 300 μl of a blocking solution containing 5X Denhardt's solution, 1% gelatin (Sigma), […] sheared herring sperm DNA (Promega Biotec, Madison, Wis.) at least overnight at 4° C. […]

Another assay relates to CD4 cells. Further details: species or system human (HIV antibody-positive subjects). The settings on record: human, in vivo. As to the method:
as §1
Sample optical density was converted to copy number and analyses performed on samples expressed as RNA copy number/200 μl of plasma. […] A t test of paired samples was used to analyze paired plasma data and CD4 counts from subjects pre- and post-therapy. All t tests were two tailed. […]

The test system of assay [1] is HIV with codon 74 mutation in reverse transcriptase. The settings on record: codon 74 mutation in an HIV construct (St. Clair et al.); cited from earlier work.
In the next assay the test system is CD4+ T cells. The experiment in a line: CD4+ T-cell slope changes before/after codon 74 mutation on didanosine. Conditions: 34 of 38 patients who developed the mutation; CI −2.68 to −0.71. The format is in vivo, human (patients infected with HIV). The text has this: (§2) A two-sided t-test was used to compare changes in virus burden between patient groups. A standard one-sample, two-sided Wilcoxon test was used to compare differences in the change of slopes of CD4^+ T cells (slopes of CD4^+ cells before the mutation compared with slopes of CD4^+ cells after the mutation) for patients developing a mutation at codon 74. The slope difference test analysis pertained to the slope difference statistic, defined to be the difference in fitted slope of the CD4^+ counts after compared with before the mutation at codon 74. Thirty-four of 38 patients in the mutation group had sufficient data to allow computation of the slope difference statistic.
We compared the slope difference statistic values for the 34 mutants with the corresponding values from the wild-type group in order to see if they were more negative in the mutant group. […]

A further assay has as its system serum HIV RNA. The experiment in a line: Serum virus burden by quantitative PCR in patients receiving didanosine monotherapy. It counts as in vivo, human (patients infected with HIV).
Description: Duplicate serum samples were ultracentrifuged, and the pellet was purified by phenol-chloroform extraction and alcohol precipitation, as previously described for plasma (Winters et al., 1993, J. Clin. Microbiol. 31:2960-2966). Polymerase chain reaction quantification of viral RNA was done using reverse-transcriptase PCR, and the PCR product was detected using a nonisotopic enzyme-hybridization assay, as previously described (Winters et al., 1992, PCR Methods Appl. 1:257-262). Results were then expressed as HIV RNA copies per milliliter of serum.
as §2

Several values for one entry are separate records, joined by “and”; a condition that tells them apart may be missing. Equal values may be shown once.

Consider `OC[C@@H]1CC[C@H](n2cnc3c(O)ncnc32)O1` [ddI, 2′,3′-dideoxyinosine], for which, in the assay with plasma HIV RNA (1 mo after initiation, ddI 500 mg/d), the “Post HIV RNA” value is given as 0 copy number/200 μl of plasma. In addition, in the assay with plasma HIV RNA (before initiation of therapy), the “Pre HIV RNA” value was 966 copy number/200 μl of plasma and 3944 copy number/200 μl of plasma. The “Post CD4” value in the assay on CD4 cells is 328/310 and 222/370. In the assay on CD4 cells, the “Pre CD4” value was 328/310 and 222/370. In assay [1], the “decrease in susceptibility to didanosine” value is “eightfold”. Moreover, in the assay with CD4+ T cells, the “median greater decline of CD4+ T-cell slope after vs before codon 74 mutation” value was −1.54 CD4^+ cells/wk. Further, the “Fold Difference in virus burden, mutant vs wild type” value is listed as 1.66 fold with serum HIV RNA (Week 0, listed as DIDANOSINE); 1.6 fold with serum HIV RNA (Week 0, listed as didanosine); 2.71 fold in the assay on serum HIV RNA (Week 24, listed as DIDANOSINE); 2.7 fold in the assay on serum HIV RNA (Week 24, listed as didanosine). In addition, the “Week 0, mean HIV RNA copies/mL serum” value was 83 000 copies/mL serum in the assay with serum HIV RNA (patients whose codon 74 genotypes became mutant, initiation of didanosine); 50100 copies/mL serum in the assay on serum HIV RNA (patients whose codon 74 genotypes remained wild type, initiation of didanosine, listed as DIDANOSINE); 50 100 copies/mL serum with serum HIV RNA (patients whose codon 74 genotypes remained wild type, initiation of didanosine, listed as didanosine); 83000 copies/mL serum with serum HIV RNA ({}). Further, the “Fold increase in virus burden between week 0 to 24” value with serum HIV RNA (remained wild type at codon 74) is on record as 1.65 fold. Moreover, the results for the “Week 24, mean HIV RNA copies/mL serum” value in the assay on serum HIV RNA (remained wild type at codon 74) and in the assay on serum HIV RNA ({}) were 82400 copies/mL serum and 225000 copies/mL serum, respectively. Besides, the “mean serum virus burden” value in the assay on serum HIV RNA (subgroup codon 74 mutation with codon 215 mutation, after 24 weeks of didanosine) is on record as “about 275 400 HIV RNA copies/mL serum”.

These data come from USRE38352E1, “Polymerase chain reaction assays for monitoring antiviral therapy and making therapeutic decisions in the treatment of acquired immunodeficiency syndrome” (priority 1992, dated 2003).
